Literature values in patent US9273049B2 (North-West University, priority 2009, dated 2016).

Settings: Class II = high permeability, low solubility

## Cc1ccnc2c1NC(=O)c1cccnc1N2C1CC1 [nevirapine, 11-cyclopropyl1-5,11-dihydro-4-methyl-6H-dipyrido[3,2-b: 2′,3′-e][1,4]diazepin-6-one]
  FDA classification: Class II
